What all share (type): cell-based
In one assay the target is T1, human TLR7 (Homo sapiens, UniProt Q9NYK1).
T1 construct: host or cells: HEK-Blue cells (HEK293-derived reporter line)
T1 sequence (Q9NYK1 27-1049): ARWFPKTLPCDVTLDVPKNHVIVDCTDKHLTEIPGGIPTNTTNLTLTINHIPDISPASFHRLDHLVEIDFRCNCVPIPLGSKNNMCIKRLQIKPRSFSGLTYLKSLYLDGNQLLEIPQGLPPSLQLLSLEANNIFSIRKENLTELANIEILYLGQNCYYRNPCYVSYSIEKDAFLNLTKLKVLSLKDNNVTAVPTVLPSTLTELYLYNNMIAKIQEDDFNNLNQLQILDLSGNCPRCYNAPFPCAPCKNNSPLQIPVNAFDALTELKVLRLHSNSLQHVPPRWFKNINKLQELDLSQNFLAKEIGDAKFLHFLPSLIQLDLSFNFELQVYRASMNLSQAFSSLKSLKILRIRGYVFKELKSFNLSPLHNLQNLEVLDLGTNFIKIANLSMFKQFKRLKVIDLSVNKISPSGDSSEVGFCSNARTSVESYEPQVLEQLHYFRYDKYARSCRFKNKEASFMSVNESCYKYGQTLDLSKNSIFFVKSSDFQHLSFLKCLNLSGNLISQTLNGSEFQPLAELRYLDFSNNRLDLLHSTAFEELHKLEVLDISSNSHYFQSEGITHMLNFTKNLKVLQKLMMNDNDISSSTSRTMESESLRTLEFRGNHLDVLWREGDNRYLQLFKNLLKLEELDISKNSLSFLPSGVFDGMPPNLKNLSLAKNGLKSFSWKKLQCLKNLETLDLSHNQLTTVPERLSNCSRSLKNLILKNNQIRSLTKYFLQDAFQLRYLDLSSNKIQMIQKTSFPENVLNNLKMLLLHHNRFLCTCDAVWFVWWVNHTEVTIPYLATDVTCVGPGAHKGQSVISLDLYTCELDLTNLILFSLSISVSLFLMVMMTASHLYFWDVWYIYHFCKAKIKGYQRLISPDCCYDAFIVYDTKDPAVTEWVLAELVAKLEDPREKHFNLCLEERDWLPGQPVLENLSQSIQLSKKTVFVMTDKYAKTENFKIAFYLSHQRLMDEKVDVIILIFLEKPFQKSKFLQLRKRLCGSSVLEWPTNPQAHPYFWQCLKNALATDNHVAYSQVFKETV
Kind of assay: TLR7 inhibition reporter assay (HEK-Blue cells, secreted embryonic alkaline phosphatase reporter). Conditions: HEK-Blue cells overexpressing human TLR7, stimulated with gardiquimod 7.5 μM; read-out: TLR 7 IC50. The essentials: (§1)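 Cells seeded at 15000 (TLR7), 20,000 (TLR8) or 25,000 (TLR9) per well; compound 0.05 nM–50 μM, 30 min RT pre-incubation. Agonists: gardiquimod 7.5 μM, R848 15.9 μM, ODN2006 5 nM respectively. 22 h, 37 °C; SEAP via HEK-Blue Detection; % inhibition vs agonist+DMSO and known-inhibitor wells.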

Another assay deals with T2, human TLR9 (Homo sapiens, UniProt Q9NR96).
T2 construct: host or cells: HEK-Blue cells (HEK293-derived reporter line)
T2 sequence (Q9NR96 26-1032): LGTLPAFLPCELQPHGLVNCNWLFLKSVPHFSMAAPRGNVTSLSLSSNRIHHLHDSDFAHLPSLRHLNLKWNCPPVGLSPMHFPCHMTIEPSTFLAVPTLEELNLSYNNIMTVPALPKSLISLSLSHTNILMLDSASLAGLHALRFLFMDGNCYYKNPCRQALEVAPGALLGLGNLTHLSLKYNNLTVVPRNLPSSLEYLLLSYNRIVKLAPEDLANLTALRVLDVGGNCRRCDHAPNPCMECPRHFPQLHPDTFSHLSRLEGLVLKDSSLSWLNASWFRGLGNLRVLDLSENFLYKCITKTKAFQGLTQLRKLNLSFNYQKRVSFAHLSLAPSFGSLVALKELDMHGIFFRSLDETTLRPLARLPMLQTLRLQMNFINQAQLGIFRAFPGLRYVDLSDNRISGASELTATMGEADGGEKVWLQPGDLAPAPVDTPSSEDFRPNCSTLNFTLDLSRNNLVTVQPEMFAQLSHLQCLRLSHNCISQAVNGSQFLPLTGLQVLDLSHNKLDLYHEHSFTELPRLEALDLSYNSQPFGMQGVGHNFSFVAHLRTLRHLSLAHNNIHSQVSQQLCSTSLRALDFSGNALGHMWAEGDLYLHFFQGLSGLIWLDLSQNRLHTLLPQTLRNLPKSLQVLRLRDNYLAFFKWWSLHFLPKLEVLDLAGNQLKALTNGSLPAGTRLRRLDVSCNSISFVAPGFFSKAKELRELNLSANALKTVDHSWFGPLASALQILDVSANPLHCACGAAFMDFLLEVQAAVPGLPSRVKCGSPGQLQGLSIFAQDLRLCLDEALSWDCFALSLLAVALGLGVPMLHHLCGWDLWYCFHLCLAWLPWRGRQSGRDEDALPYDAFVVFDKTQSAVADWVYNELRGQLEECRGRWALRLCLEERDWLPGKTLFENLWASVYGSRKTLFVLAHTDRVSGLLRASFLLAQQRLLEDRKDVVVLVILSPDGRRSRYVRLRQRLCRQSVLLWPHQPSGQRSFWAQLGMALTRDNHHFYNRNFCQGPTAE
Kind of assay: TLR9 inhibition reporter assay (HEK-Blue cells, secreted embryonic alkaline phosphatase reporter). The essentials: as §1
In general terms: In a reporter assay the amount or activity of a reporter protein is the signal.

The next assay concerns the target T3, human TLR8 (Homo sapiens, UniProt Q9NR97).
T3 construct: host or cells: HEK-Blue cells (HEK293-derived reporter line)
T3 sequence (Q9NR97 27-1041): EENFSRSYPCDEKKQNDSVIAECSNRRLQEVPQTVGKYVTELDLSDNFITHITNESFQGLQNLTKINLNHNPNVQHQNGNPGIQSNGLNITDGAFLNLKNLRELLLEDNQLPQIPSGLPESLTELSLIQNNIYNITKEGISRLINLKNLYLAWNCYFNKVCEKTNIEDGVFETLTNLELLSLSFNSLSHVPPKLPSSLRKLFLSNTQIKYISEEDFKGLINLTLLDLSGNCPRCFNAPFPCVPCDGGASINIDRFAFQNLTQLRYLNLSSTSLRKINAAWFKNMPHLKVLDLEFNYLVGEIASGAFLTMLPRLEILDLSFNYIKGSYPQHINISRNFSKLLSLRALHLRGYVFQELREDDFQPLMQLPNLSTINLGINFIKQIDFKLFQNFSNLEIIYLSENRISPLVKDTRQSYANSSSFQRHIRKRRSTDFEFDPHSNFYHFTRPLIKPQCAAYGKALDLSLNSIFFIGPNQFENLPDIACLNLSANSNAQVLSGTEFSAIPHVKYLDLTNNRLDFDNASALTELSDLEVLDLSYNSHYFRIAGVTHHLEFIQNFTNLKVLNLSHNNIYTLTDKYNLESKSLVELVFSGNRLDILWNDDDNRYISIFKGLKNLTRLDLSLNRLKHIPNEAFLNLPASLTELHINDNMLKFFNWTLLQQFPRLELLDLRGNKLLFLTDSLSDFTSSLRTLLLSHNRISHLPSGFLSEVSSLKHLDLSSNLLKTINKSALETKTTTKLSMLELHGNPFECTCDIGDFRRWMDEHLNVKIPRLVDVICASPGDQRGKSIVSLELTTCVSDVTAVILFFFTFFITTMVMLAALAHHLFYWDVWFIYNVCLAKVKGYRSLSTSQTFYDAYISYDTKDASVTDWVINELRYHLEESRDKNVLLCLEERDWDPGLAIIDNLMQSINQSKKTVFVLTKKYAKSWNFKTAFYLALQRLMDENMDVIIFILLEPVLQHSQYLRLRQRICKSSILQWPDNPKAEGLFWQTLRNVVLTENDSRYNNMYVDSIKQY
Kind of assay: TLR8 inhibition reporter assay (HEK-Blue cells, secreted embryonic alkaline phosphatase reporter). Conditions: HEK-Blue cells overexpressing human TLR8, stimulated with R848 15.9 μM; read-out: TLR 8 IC50. The essentials: as §1

The mark [1] stands for this setting: HEK-Blue cells overexpressing human TLR9, stimulated with ODN2006 5 nM, read-out: TLR 9 IC50.
Setting [2] is: HEK-Blue human TLR9 reporter cells.

Our source for the IC50 values is patent US12492188B2, “1H-benzo[D]imidazole derivatives as TLR9 inhibitors for the treatment of fibrosis” (BRISTOL-MYERS SQUIBB COMPANY, priority 2020, dated 2025).

Read-outs that look alike come from different tables or passages of the source.

With `COCCN1C2CCC1CC(N1CCC(c3cc(F)c4nc(-c5ccc(S(C)(=O)=O)cc5)n(C)c4c3)CC1)C2` (single isomer, unassigned) [Example 291, 4-fluoro-6-(1-(8-(2-methoxyethyl)-8-azabicyclo[3.2.1]octan-3-yl)piperidin-4-yl)-1-methyl-2-(4-(methylsulfonyl)phenyl)-1H-benzo[d]imidazole], the IC50 amounted to 1800 nM on human TLR7, 57 nM on human TLR9 (setting [1]), 57 nM against human TLR9 (setting [2]) and 34.8 µM on human TLR8.

As to `Cn1c(-c2ccc(S(C)(=O)=O)cc2)nc2c(F)cc(C3CCN(C4CC5CCC(C4)N5C4CCC4)CC3)cc21` (single isomer, unassigned) [Example 292, 6-(1-(8-cyclobutyl-8-azabicyclo[3.2.1]octan-3-yl)piperidin-4-yl)-4-fluoro-1-methyl-2-(4-(methylsulfonyl)phenyl)-1H-benzo[d]imidazole], the IC50 at human TLR7 was 21700 nM; at human TLR9 (setting [1]), 147 nM; at human TLR9 (setting [2]), 150 nM; on human TLR8, > 50 µM.

Regarding `Cn1c(-c2ccc(S(C)(=O)=O)cc2)nc2c(F)cc(C3CCN(C4CC5CCC(C4)N5C4CCC4)CC3)cc21` (single isomer, unassigned) [Example 293, 6-(1-(8-cyclobutyl-8-azabicyclo[3.2.1]octan-3-yl)piperidin-4-yl)-4-fluoro-1-methyl-2-(4-(methylsulfonyl)phenyl)-1H-benzo[d]imidazole], the IC50 was found to be 8200 nM on human TLR7, 11 nM at human TLR9 (setting [1]), 11 nM at human TLR9 (setting [2]) and 44.2 µM on human TLR8.

For the molecule `CC(C)N1CCCC(N2CCC(c3cc(F)c4nc(-c5ccc(S(C)(=O)=O)cc5)n(C)c4c3)CC2)CC1` (single isomer, unassigned) [Example 294, 4-fluoro-6-(1-(1-isopropylazepan-4-yl)piperidin-4-yl)-1-methyl-2-(4-(methylsulfonyl)phenyl)-1H-benzo[d]imidazole], the concentration for half-maximal inhibition (IC50) at human TLR7 is 2300 nM; at human TLR9 (setting [1]), 55 nM; at human TLR9 (setting [2]), 55 nM; on human TLR8, > 50 µM.

`CC(C)N1CCCC(N2CCC(c3cc(F)c4nc(-c5ccc(S(C)(=O)=O)cc5)n(C)c4c3)CC2)CC1` (single isomer, unassigned) [Example 295, 4-fluoro-6-(1-(1-isopropylazepan-4-yl)piperidin-4-yl)-1-methyl-2-(4-(methylsulfonyl)phenyl)-1H-benzo[d]imidazole]: the IC50 at human TLR7 is 700 nM; on human TLR9 (setting [1]) it was 24 nM; at human TLR9 (setting [2]) it was 24 nM; at human TLR8 it was > 50 µM.

For `Cn1c(-c2ccc(S(C)(=O)=O)cc2)nc2c(F)cc(C3CCN(C4CCCN(CC5CC5)CC4)CC3)cc21` (single isomer, unassigned) [Example 298, 6-(1-(1-(cyclopropylmethyl)azepan-4-yl)piperidin-4-yl)-4-fluoro-1-methyl-2-(4-(methylsulfonyl)phenyl)-1H-benzo[d]imidazole], the IC50 is 3000 nM at human TLR7, 58 nM at human TLR9 (setting [1]), 58 nM against human TLR9 (setting [2]) and > 50 µM on human TLR8.

In the case of `Cn1c(-c2ccc(S(C)(=O)=O)cc2)nc2c(F)cc(C3CCN(C4CCCN(CC5CC5)CC4)CC3)cc21` (single isomer, unassigned) [Example 299, 6-(1-(1-(cyclopropylmethyl)azepan-4-yl)piperidin-4-yl)-4-fluoro-1-methyl-2-(4-(methylsulfonyl)phenyl)-1H-benzo[d]imidazole], the IC50 is 2100 nM on human TLR7, 3.3 nM on human TLR9 (setting [1]), 3.3 nM against human TLR9 (setting [2]) and > 50 µM on human TLR8.

Regarding `COCCN1CCCC(N2CCC(c3cc(F)c4nc(-c5ccc(S(C)(=O)=O)cc5)n(C)c4c3)CC2)CC1` (single isomer, unassigned) [Example 302, 4-fluoro-6-(1-(1-(2-methoxyethyl)azepan-4-yl)piperidin-4-yl)-1-methyl-2-(4-(methylsulfonyl)phenyl)-1H-benzo[d]imidazole], the IC50 was 1900 nM on human TLR7, 48 nM on human TLR9 (setting [1]), 48 nM against human TLR9 (setting [2]) and > 50 µM at human TLR8.

By IC50 is commonly meant the concentration needed to halve the response being measured.
